From patent US20230270114A1, “FUNGICIDAL COMPOSITIONS” (SYNGENTA CROP PROTECTION AG, priority 2020, published 2023) come the findings set out here.

The subject of assay [1] is Glomerella lagenarium (Colletotrichum lagenarium). Nature of the assay: Example A3: Glomerella lagenarium (Colletotrichum lagenarium) / liquid culture (anthracnose). The class given is cell-based. The settings on record: Colletotrichum orbiculare; read-out: control of Glomerella lagenarium.
In another assay the test system is Phakopsora pachyrhizi. Nature of the assay: Example A8: Phakopsora pachyrhizi / soybean / preventative (soybean rust). It is filed as in vivo. To be noted: foliar, soybean leaf disks preventative, inoculated one day after application, compared to untreated control.
Assay [2] concerns Puccinia recondita f. sp. tritici. The class given is in vivo. The settings on record: foliar, wheat leaf disc preventative, inoculated 1 day after application, compared to untreated control.
In the next assay the test system is Pyrenophora teres. Nature of the assay: Example A12: Pyrenophora teres / barley / leaf disc preventative (net blotch). The class given is in vivo. To be noted: foliar, inoculated 2 days after application, compared to untreated control.
For assay [3], the system named is Monographella nivalis (Microdochium nivale). Nature of the assay: Example A6: Monographella nivalis (Microdochium nivale) / liquid culture (foot rot cereals). It is filed as cell-based. The settings on record: read-out: control of Monographella nivalis.
For assay [4], the system named is Mycosphaerella graminicola (Septoria tritici). Nature of the assay: Example A14: Mycosphaerella graminicola (Septoria tritici) / liquid culture (Septoria blotch). It is filed as cell-based. To be noted: Zymoseptoria tritici; read-out: control of Mycosphaerella graminicola.
For a further assay, the system named is Alternaria solani. Nature of the assay: Example A1: Alternaria solani / tomato / leaf disc (early blight). It is filed as in vivo. To be noted: foliar, tomato leaf disks inoculated 2 days after application, compared to untreated control.
Assay [5] concerns Puccinia recondita f. sp. tritici. The class given is in vivo. The settings on record: foliar, 24 h, wheat leaf disc curative, applied 1 day after inoculation, compared to untreated control.
Assay [6] concerns Magnaporthe grisea (Pyricularia oryzae). Nature of the assay: whole plant or invertebrate. It is filed as in vivo. To be noted: foliar, read-out: control of Magnaporthe grisea.
For assay [7], the system named is Mycosphaerella arachidis (Cercospora arachidicola). Nature of the assay: Example A7: Mycosphaerella arachidis (Cercospora arachidicola) / liquid culture (early leaf spot). It is filed as cell-based. The settings on record: read-out: control of Mycosphaerella arachidis.
Assay [8] relates to Botryotinia fuckeliana (Botrytis cinerea). Nature of the assay: Example A2: Botryotinia fuckeliana (Botrytis cinerea) / liquid culture (gray mould). The class given is cell-based. To be noted: read-out: control of Botryotinia fuckeliana. The text has this: Example A2: Botryotinia Fuckeliana (Botrytis Cinerea) / Liquid Culture (Gray Mould) Conidia of the fungus from cryogenic storage are directly mixed into nutrient broth (Vogels broth). […] […].38.

Read-outs that look alike come from different tables or passages of the source. Where only a bound is given, the exact number is not on record here.

For `CC(=O)OCC(=O)N(c1cc(F)nc(F)c1)c1nc(C(=O)NC2CCC2(C)C)c(C)s1` (stereo not shown) [X.08, [2-[(2,6-difluoro-4-pyridyl)-[4-[(2,2-dimethylcyclobutyl)carbamoyl]-5-methyl-thiazol-2-yl]amino]-2-oxo-ethyl] acetate], the inhibition of growth at 20 ppm in [1], in assay [3], in assay [4] and in [7] was not below 80% in each case. In addition, the pest or weed control at 200 ppm (with Phakopsora pachyrhizi; in [2]; in the assay with Pyrenophora teres; with Alternaria solani; in assay [5]; in [6]) was not below 80% in each case.
Consider `Cc1sc(N(C(=O)COCc2ccccc2)c2cc(F)nc(F)c2)nc1C(=O)NC1CCC1(C)C` (stereo not shown) [X.14, 2-[(2-benzyloxyacetyl)-(2,6-difluoro-4-pyridyl)amino]-N-(2,2-dimethylcyclobutyl)-5-methyl-thiazole-4-carboxamide], for which the inhibition of growth at 20 ppm in assay [1] was not below 80%; in assay [3], not below 80%; in assay [4], not below 80%; in assay [8] it was not below 70%. The pest or weed control at 200 ppm (in the assay with Phakopsora pachyrhizi; in [2]; in the assay with Pyrenophora teres; with Alternaria solani; in assay [5]; in assay [6]) was not below 80% throughout.
Turning to `CCOCC(=O)N(c1cc(F)nc(F)c1)c1nc(C(=O)NC2CCC2(C)C)c(C)s1` (stereo not shown) [X.15, 2-[(2,6-difluoro-4-pyridyl)-(2-ethoxyacetyl)amino]-N-(2,2-dimethylcyclobutyl)-5-methyl-thiazole-4-carboxamide], the inhibition of growth at 20 ppm in assay [1] was not below 80%; in assay [3], not below 80%; in [4] it was not below 80%; in assay [8], not below 70%. Besides, the pest or weed control at 200 ppm (in the assay with Phakopsora pachyrhizi; in [2]; in the assay with Pyrenophora teres; in the assay on Alternaria solani; in assay [5]; in assay [6]) was not below 80% in each case.
With `Cc1sc(N(C(=O)CCl)c2cc(F)nc(F)c2)nc1C(=O)NC1CCC1(C)C` (stereo not shown) [X.17, 2-[(2-chloroacetyl)-(2,6-difluoro-4-pyridyl)amino]-N-(2,2-dimethylcyclobutyl)-5-methyl-thiazole-4-carboxamide], the inhibition of growth at 20 ppm in assay [1], in [3], in assay [4] and in assay [7] was not below 80% throughout. Further, the pest or weed control at 200 ppm (in the assay with Phakopsora pachyrhizi; in assay [2]; with Pyrenophora teres; in the assay on Alternaria solani; in [5]; in assay [6]) was not below 80% each time.
`COC(=O)CC(=O)N(c1cc(F)nc(F)c1)c1nc(C(=O)NC2CCC2(C)C)c(C)s1` (stereo not shown) [X.18, methyl 3-[(2,6-difluoro-4-pyridyl)-[4-[(2,2-dimethylcyclobutyl)carbamoyl]-5-methyl-thiazol-2-yl]amino]-3-oxo-propanoate]: the inhibition of growth at 20 ppm in assay [1], in assay [3], in assay [4] and in assay [7] was not below 80% throughout. In addition, the pest or weed control at 200 ppm (in assay [2]; in the assay on Pyrenophora teres; in the assay on Alternaria solani; in assay [5]; in assay [6]) was not below 80% in each case.
Regarding `Cc1sc(N(C(=O)CF)c2cc(F)nc(F)c2)nc1C(=O)NC1CCC1(C)C` (stereo not shown) [X.27, 2-[(2,6-difluoro-4-pyridyl)-(2-fluoroacetyl)amino]-N-(2,2-dimethylcyclobutyl)-5-methyl-thiazole-4-carboxamide], the inhibition of growth at 20 ppm in [1], in [3], in assay [4] and in [7] was not below 80% in each case. The pest or weed control at 200 ppm (in the assay on Phakopsora pachyrhizi; in assay [2]; in the assay with Pyrenophora teres; in the assay on Alternaria solani; in assay [5]; in assay [6] (200 ppm)) was not below 80% each time.
As to `COCC(=O)N(c1cc(F)nc(F)c1)c1nc(C(=O)NC2CCC2(C)C)c(C)s1` (stereo not shown) [X.29, 2-[(2,6-difluoro-4-pyridyl)-(2-methoxyacetyl)amino]-N-(2,2-dimethylcyclobutyl)-5-methyl-thiazole-4-carboxamide], the inhibition of growth at 20 ppm is not below 80% in assay [1]; not below 80% in [3]; not below 80% in assay [4]; not below 70% in assay [8]; not below 80% in assay [7]. Besides, the pest or weed control at 200 ppm (in the assay on Phakopsora pachyrhizi; in assay [2]; with Pyrenophora teres; with Alternaria solani; in [5]; in [6]) was not below 80% each time.
In the case of `Cc1sc(N(C=O)c2cc(F)nc(F)c2)nc1C(=O)NC1CCC1(C)C` (stereo not shown) [X.33, 2-[(2,6-difluoro-4-pyridyl)-formyl-amino]-N-(2,2-dimethylcyclobutyl)-5-methylthiazole-4-carboxamide], the inhibition of growth at 20 ppm in [1] is not below 80%; in [3], not below 80%; in [4], not below 80%; in assay [8], not below 70%; in assay [7], not below 80%. Further, the pest or weed control at 200 ppm (in the assay on Phakopsora pachyrhizi; in assay [2]; in the assay on Pyrenophora teres; in the assay on Alternaria solani; in assay [5]; in assay [6]) was not below 80% in each case.
`Cc1sc(N(C(=O)c2ccccc2)c2cc(F)nc(F)c2)nc1C(=O)NC1CCC1(C)C` (stereo not shown) [X.35, 2-[benzoyl-(2,6-difluoro-4-pyridyl)amino]-N-(2,2-dimethylcyclobutyl)-5-methylthiazole-4-carboxamide]: the inhibition of growth at 20 ppm was not below 80% in [1], not below 80% in assay [3] and not below 70% in assay [8]. The pest or weed control at 200 ppm (with Phakopsora pachyrhizi; in assay [2]; in the assay on Pyrenophora teres; in the assay on Alternaria solani; in assay [6]) was not below 80% in each case.
In the case of `CC(=O)N(c1cc(F)nc(F)c1)c1nc(C(=O)NC2CCC2(C)C)c(C)s1` (stereo not shown) [X.36, 2-[acetyl-(2,6-difluoro-4-pyridyl)amino]-N-(2,2-dimethylcyclobutyl)-5-methylthiazole-4-carboxamide], the inhibition of growth at 20 ppm is not below 80% in assay [1], not below 80% in assay [3], not below 80% in assay [4] and not below 70% in assay [8]. Also, the pest or weed control at 200 ppm (in [2]; in the assay with Pyrenophora teres; in the assay on Alternaria solani; in assay [6]) was not below 80% each time.
